The results in this text go back to article PMC8899577, “Targeting the anti-apoptotic Bcl-2 family proteins: machine learning virtual screening and biological evaluation of new small molecules” (Theranostics, 2022).

Structures are written as SMILES.

Experiment [1] has as its system Sbcl2 melanoma cells. In words: Cell viability by MTT, Sbcl2. The experiment is classed as cell-based. The following applies: Homo sapiens, 72 h. As to the method: The effect of compounds on cell viability was performed by measuring 3-[4,5-dimethylthiazol-2-yl]-2,5-diphenyltetrazolium bromide inner salt (MTT, Sigma-Aldrich) dye absorbance (solid tumor cells) or by quantization of ATP present in metabolically active cells using CellTiter-Glo® Luminescent (Promega, Fitchburg, Wisconsin, USA) (hematologic cells) following manifacturer's protocol. To evaluate the cell colony-forming ability, cell suspension from different samples was seeded into 60-mm Petri dishes. After 10 days, colonies were stained with 2% methylene blue in 95% ethanol and counted (1 colony > 50 cells). The surviving fractions were calculated as the ratio of absolute survival of the treated sample/survival of DMSO-treated control sample.
Figure 1 Cytotoxic screening of putative inhibitors of Bcl-2 anti-apoptotic proteins. (A) Flow cytometric quantification of propidium iodide exclusion assay in HL60 cells treated with the 49 putative Bcl-2 family inhibitors (50 μM, 72 h). (B) Analysis of cell viability by CellTiterGlo assay in HL60 cells treated for 24 h with concentrations ranging from 5 to 50 μM of the indicated compounds. (C-D) Analysis of cell viability by MTT assay in (C) M14 and (D) Sbcl2 melanoma cell lines treated for 72 h with concentrations ranging from 5 to 50 μM of the indicated compounds. […]

Experiment [2] has as its system M14 cells. As to the kind of experiment: Tumor sphere formation assay, M14. The format is cell-based, Human. The conditions noted are these: 20 µM for 72 h, respect to controls. As to the method: For tumor sphere assay, cells were recovered after treatment, counted and seeded in 24-well ultralow attachment surface plates at a density of 5 × 10^2 cells/well and cultured as previously described. After 10 days, spheres were photographed and counted. The percentage of spheres normalized to the number of seeded cells was calculated.
Figure 4 Analysis of the effect of IS20 and IS21 on cell viability, clonogenic ability and tumor sphere formation in cancer cells. (A) Analysis of cell viability by MTT assay in M14, H1299, HCT116 and MDA-MB-231 cell lines treated with IS20 or IS21 (20 μM for 72 h). The results are reported as “viability of treated cells/viability of control cells (Ctrl)” × 100. (B) Representative images and quantification of clonogenic ability evaluated in M14 and H1299 cells treated with IS20 or IS21 (20 μM for 72 h). Results are reported as percentage of clonogenicity of treated versus control cells. (C) Quantification of tumor sphere formation of M14 and H1299 cells treated with IS20 or IS21 (20 μM for 72 h). Results are reported as percentage of tumor sphere formation of treated versus control. (A-C) Data are reported as mean ± SD of three independent experiments. p-values were calculated between control (Ctrl) and treated cells, ** p < 0.001 and *** p < 0.0001.

The subject of experiment [3] is H1299 cells. In words: Western blot of PARP1 cleavage, H1299. The experiment is classed as cell-based, Human. The conditions noted are these: 72 h. As to the method:
(§1) Western blot analyses of total protein extracts were performed as previously described. Immunodetection was performed using antibodies directed to poly (ADP-ribose) polymerase (PARP; BD Biosciences San Diego, CA, USA), LC3B (Cell Signaling Technology, Danvers, MA), HSP72/73 (Calbiochem, EMD Biosciences, La Jolla, CA), Bcl-2 (SC-509, Santa Cruz Biotechnology Inc, Dallas, TX, USA), Bcl-xL (SC-271121, Santa Cruz Biotechnology Inc), Mcl-1 (SC-12756, Santa Cruz Biotechnology Inc) α-tubulin (Santa Cruz Biotechnology Inc) actin (Sigma-Aldrich, St. Louis, Missouri, USA). Anti-rabbit or anti-mouse immunoglobulin G-horseradish peroxidase-conjugated antibodies (Amersham Biosciences, Freiburg, Germany) were used as secondary antibody. Images were acquired by Image Lab Software (Bio-Rad, Hercules, CA, USA), using a ChemiDoc System instrument (Bio-Rad). […]
Figure 5 Analysis of apoptosis induction by IS20 and IS21 in leukemia, melanoma and NSCLC cells. […] (G) Flow cytometric quantification of cells in the subG1 peak of cell cycle distribution by propidium iodide staining in HL60 cell line treated with IS20 or IS21 (20 μM for 24 h) and in M14, H1299 and MDA-MB-231 cell lines treated with IS20 or IS21 (20 μM for 72 h). Data are reported as mean ± SD of three independent experiments. p-values were calculated between control (Ctrl) and treated cells, * p < 0.05. […]
In general terms: In western blotting, separated proteins are transferred to a membrane and probed.

Experiment [4] concerns H1299 cells. As to the kind of experiment: Western blot of LC3B-I/LC3B-II (autophagy), H1299. The experiment is classed as cell-based, Human. The following applies: 72 h, increasing concentration. As to the method: as §1, with “antibody.” for “antibody. Images were acquired by Image Lab Software (Bio-Rad, Hercules, CA, USA), using a ChemiDoc System instrument (Bio-Rad).”
Figure 6 Analysis of autophagosome accumulation in M14 and H1299 cells after treatment with IS20 or IS21. […] Ratio of LC3B-II on LC3B-I levels, after normalization on HSP72/73, Actin or α-Tubulin, is quantified by densitometric analysis. (D) (Upper panels) Representative images and (lower panels) relative quantification of fluorescence microscopic analysis of LC3B puncta positive cells in M14 EGFP-LC3B and H1299 EGFP-LC3B transfected cells, treated with IS20 or IS21 (20 µM for 72h). […] Cells with more than 10 puncta were considered autophagy-positive. p-values were calculated between untreated (Ctrl) and treated cells, * p < 0.05.

Regarding `CCCCOc1ccc(C2/C(=C(\O)c3ccc4c(c3)CC(C)O4)C(=O)C(=O)N2c2nnc(SCc3ccc(Cl)cc3)s2)cc1OCC` (centres unmarked) [IS20], the midpoint of inhibition in experiment [1], the IC50, lay at 21 µM. Also, the “decrease of sphere formation capacity, M14” value in experiment [2] is given as “about 60%”. For the same compound, in experiment [3], the “PARP1 cleavage, H1299” value is given as “cleavage of PARP1”. Moreover, the “ratio of LC3B-II on LC3B-I protein levels, H1299” value in experiment [4] is given as “higher level”.
For `CCCCCOc1ccc(C2/C(=C(\O)c3ccc4c(c3)CC(C)O4)C(=O)C(=O)N2c2nnc(SCc3ccc(Cl)cc3)s2)cc1OCC` (centres unmarked) [IS21], in that order: 19.8 µM, “about 60%”, “cleavage of PARP1” and “higher level”.

The term IC50 denotes the concentration needed to halve the response being measured. Read a high IC50 as a need for much substance.
